Test results taken from the NIST ThermoML archive (doi:10.1016/j.fluid.2013.07.028).
Numbers after ± are expanded uncertainties.

Columns and labels:
[1] = refractive index (Na D-line) (dimensionless); conditions: 298.15 K; 101.33 kPa; Liquid; Standard Abbe refractometry
[2] = 298.15 K; 101.33 kPa; Liquid; Vibrating tube method

Structure (SMILES)	refractive index [1]	mass density [2] [kg/m3]
CC(=O)[O-].CCn1cc[n+](C)c1 [1-ethyl-3-methylimidazolium acetate]	1.50069 ± 0.001	1099.02 ± 8.4
CCOP(=O)([O-])OCC.CCn1cc[n+](C)c1 [1-ethyl-3-methylimidazolium diethyl phosphate]	1.47304 ± 0.001	1148.4 ± 9.2
CCCCCC [hexane]	1.37236 ± 0.00037	655.09 ± 0.33
c1ccncc1 [pyridine]	1.50636 ± 0.00033	978.04 ± 0.12
c1ccsc1 [thiophene]	1.52523 ± 0.00033	1058.61 ± 0.15
Cc1ccccc1 [toluene]	1.49367 ± 0.00033	862.18 ± 0.16
